{
  "source": "paper doi:10.1101/496141v1",
  "about": "(bioRxiv, 2018)",
  "format_in_all_cases": "in vivo, mouse",
  "key": {"[1]": {"system": "ERK phosphorylation (pERK)", "test": "pERK positive cells in dorsal striatum after i.p. RB5", "conditions": "single dose 20 mg/kg i.p., n=5 mice/group, vs SCR at 1h"}, "Hdh^Q111/+ knock-in mice": {"system": "Hdh^Q111/+ knock-in mice", "test": "Hdh Q111/+ knock-in mice: striatal caspase-3 and pERK", "conditions": "20 mg/kg i.p. for 8 days; twice a day, 7 days; vs SCR"}, "Tg2576 mice": {"system": "Tg2576 mice", "test": "Contextual fear conditioning in Tg2576 mice", "conditions": "7 months old mice, 20 mg/kg i.p. 1h before training; vs Tg2576 SCR"}},
  "data": [
    {"sequence": "GRKKRRQRRRPPQGGGGGEPRRTEGVGPGVPGEVEMVKGQPFDV [RB5]", "values": [
      {"measurement": "duration of enhancement of ERK phosphorylation in dorsal striatum", "setting": "[1]", "value": "up to 6 h"},
      {"measurement": "caspase-3 levels in striatum of Hdh^Q111/+ mice", "setting": "Hdh^Q111/+ knock-in mice", "value": "diminished caspase-3 levels"},
      {"measurement": "contextual fear memory impairment in Tg2576 mice (% of time spent freezing, 24h)", "setting": "Tg2576 mice", "value": "fully rescued"}
    ]}
  ]
}
